# According to PMC6969523, “Corazonin signaling integrates energy homeostasis and lunar phase to regulate aspects of growth and sexual maturation in Platynereis” (Proceedings of the National Academy of Sciences of the …, 2019):
# “Also recorded” adds a separate entry of the source. Non-standard residues stand in square brackets, D forms with d. Residues, ends and D or L forms follow the SMILES beside them. pGlu = O=C1CC[C@@H](C(=O)O)N1
# Key:
# [1] = target: T1, GnRHR1/AKHR1 (Platynereis dumerilii, UniProt A0A6B9MSD4); test: Calcium mobilization (deorphanization) assay, GnRHR1/AKHR1; format: cell-based
# T1 sequence (A0A6B9MSD4 1-359): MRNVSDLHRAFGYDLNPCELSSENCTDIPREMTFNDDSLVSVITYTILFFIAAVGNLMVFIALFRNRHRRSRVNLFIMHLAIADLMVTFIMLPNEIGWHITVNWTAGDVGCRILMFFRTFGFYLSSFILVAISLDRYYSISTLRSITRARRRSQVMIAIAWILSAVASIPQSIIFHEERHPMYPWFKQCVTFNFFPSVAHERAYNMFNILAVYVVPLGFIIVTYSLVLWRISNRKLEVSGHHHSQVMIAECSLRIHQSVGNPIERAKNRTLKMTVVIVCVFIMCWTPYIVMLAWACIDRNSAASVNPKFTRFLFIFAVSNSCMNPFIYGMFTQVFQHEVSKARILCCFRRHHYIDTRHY
# Excerpt: (§1) We next took advantage of a cell culture-based calcium mobilization assay ([59]) for assessing the ligand–receptor interactions of these receptors. […] Given that a receptor for GnRHL3 was still missing, we tested ligand–receptor interactions of all identified Platynereis GnRH-like receptors. […] As we presently cannot exclude the existence of an additional GnRH-like receptor in Platynereis that might be activated by GnRHL3 at lower concentrations, we here use the more generic name (GnRHL3) for this ligand.
# (§2) CrzRb was identified and initially deorphanized in ref. [54]. GnRHR1/AKHR1 and GnRHR2/AKHR2, as well as the second isoform of CrzR (CrzRa) were identified using an in silico approach and confirmed by cloning and sequencing. To facilitate deorphanization, cDNA of these receptors was amplified from laboratory Platynereis strains and cloned into the pcDNA3.1 (+) vector. […] Receptor activation was measured by monitoring calcium responses for 30 s on a Mithras LB 940 luminometer (Berthold Technologies). Percentage activation values of receptors were plotted for each receptor, and half maximal effective concentrations (EC50 value) were calculated using a computerized nonlinear regression analysis with a sigmoidal dose–response equation (GraphPad PRISM software). […]
# [2] = system: GnRH-superfamily receptors; test: Activation of GnRH-superfamily receptors in vitro; format: cell-based, Platynereis dumerilii
# Excerpt: as §1, §2
# [3] = target: T2, GnRHR2/AKHR2 (Platynereis dumerilii, UniProt A0A6B9MRA0); test: Calcium mobilization (deorphanization) assay, GnRHR2/AKHR2; format: cell-based
# T2 sequence (A0A6B9MRA0 1-355): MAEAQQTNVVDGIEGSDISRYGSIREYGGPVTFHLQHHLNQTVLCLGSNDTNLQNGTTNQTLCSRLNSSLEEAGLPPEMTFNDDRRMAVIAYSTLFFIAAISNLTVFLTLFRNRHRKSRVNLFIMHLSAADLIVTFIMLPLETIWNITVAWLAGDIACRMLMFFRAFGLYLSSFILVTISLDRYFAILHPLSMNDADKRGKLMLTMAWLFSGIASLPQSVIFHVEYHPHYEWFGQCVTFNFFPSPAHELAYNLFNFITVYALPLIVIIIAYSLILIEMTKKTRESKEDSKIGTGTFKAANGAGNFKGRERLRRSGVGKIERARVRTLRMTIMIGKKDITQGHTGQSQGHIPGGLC
# Excerpt: as §1, §2
# [4] = target: CrzR; test: Ligand-receptor interaction, Corazonin receptor (isoform not given); format: cell-based, Platynereis dumerilii
# Excerpt: as §1, §2
# [5] = target: T3, CrzRb (Platynereis dumerilii, UniProt A0A291FE86); test: Calcium mobilization (deorphanization) assay, CrzRb; format: cell-based
# T3 sequence (A0A291FE86 1-422): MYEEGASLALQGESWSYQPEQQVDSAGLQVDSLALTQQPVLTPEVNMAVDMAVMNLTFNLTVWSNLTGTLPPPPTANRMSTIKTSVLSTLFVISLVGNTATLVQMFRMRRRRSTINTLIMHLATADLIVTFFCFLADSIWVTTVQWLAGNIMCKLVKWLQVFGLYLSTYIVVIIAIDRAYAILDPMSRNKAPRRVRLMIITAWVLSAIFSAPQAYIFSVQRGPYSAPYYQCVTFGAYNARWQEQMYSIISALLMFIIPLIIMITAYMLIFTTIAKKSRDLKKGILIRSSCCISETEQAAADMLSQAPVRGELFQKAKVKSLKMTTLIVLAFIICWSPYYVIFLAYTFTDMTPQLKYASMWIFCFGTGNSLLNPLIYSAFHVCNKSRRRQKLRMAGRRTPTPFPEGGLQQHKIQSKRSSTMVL
# Excerpt: as §1, §2
# [6] = target: T4, CrzRa (Platynereis dumerilii, UniProt A0A6B9MK47); test: Calcium mobilization (deorphanization) assay, CrzRa; format: cell-based
# T4 sequence (A0A6B9MK47 1-288): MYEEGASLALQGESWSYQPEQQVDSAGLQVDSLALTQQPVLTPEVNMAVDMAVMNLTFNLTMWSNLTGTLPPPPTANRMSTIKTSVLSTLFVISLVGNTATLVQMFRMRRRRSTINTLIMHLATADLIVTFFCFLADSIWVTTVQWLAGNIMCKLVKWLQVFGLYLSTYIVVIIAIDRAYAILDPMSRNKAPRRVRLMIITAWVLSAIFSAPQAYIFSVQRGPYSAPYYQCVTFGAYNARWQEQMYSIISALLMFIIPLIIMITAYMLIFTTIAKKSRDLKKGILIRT
# Excerpt: as §1, §2
# [7] = system: honeybee larvae; conditions: fed with swainsonine; ref SI 20; cited from earlier work
# Excerpt: Cons e que nce s of lys os oma l α-ma n n o si d as e im p a i r me n t s i n o t h e r s pe ci es One of the molecular consequences of knocking out the Platynereis crz1/gnrhl1 gene that we reveal in this study is the strong reduction of lysosomal α-mannosidase. In huma ...
# [8] = system: glucose production; conditions: vertebrate glucagon; glycogenolysis and gluconeogenesis; ref [38], [66], [77]–[79]; cited from earlier work
# Excerpt: The focus on the metabolic consequences of CRZ/GnRHL provides an interesting perspective for the cross-comparison of corazonin signaling with other signaling systems. The proposed role of worm CRZ1 in promoting the expression of α-glucosidases and pepck is reminiscent of the action of the GnRH-like AKH peptide in flies but also the role of vertebrate glucagon, an independent factor that has been discussed as a functional analog of insect AKH signaling ([38], [66], [77]–[79]). […] Thus, CRZ1/GnRHL1 see ...
# [9] = system: female mice; conditions: female mice injected with leptin; ref [50]–[52]; cited from earlier work
# Excerpt: In turn, strong interconnections between the GnRH system and metabolism can also be found in several vertebrates. […] In mammals, GnRH release is also regulated by the orexigenic neuropeptide Y (NPY) and kisspeptin, which relays both sex steroid and leptin signaling to GnRH neurons ([49]). In line with this, a high-fat diet increases hypothalamic gnrh expression in prepubescent gilts ([50]), where this treatm ...
# [10] = CHO cells stably expressing apo-aequorin and human Gα16, transient transfection, calcium response 30 s, luminometer, nonlinear regression, at least 4 replicates in at least 2 independent experiments
# [11] = CHO cells, all receptors tested with all ligands
# [12] = CHO cells, all receptor-ligand combinations tested, GnRHL3 at higher concentration (sub-micromolar to micromolar range)
molecule,measurement,setting,value
CC(C)C[C@H](NC(=O)[C@H](CO)NC(=O)[C@H](CCC(N)=O)NC(=O)[C@@H](NC(=O)[C@H](CC(C)C)NC(=O)[C@@H]1CCC(=O)N1)[C@@H](C)O)C(=O)NCC(=O)N[C@@H](Cc1c[nH]c2ccccc12)C(=O)NCC(=O)N[C@@H](CO)C(=O)N[C@@H](C)C(=O)NCC(=O)N[C@@H](CO)C(=O)N[C@@H](CO)C(N)=O [GnRH2/GnRHL4] ([pGlu]LTQSLGWGSAGSS-NH2),EC50,[1]; [10],11.5 nM
same,activation of GnRHR1/AKHR1,[1]; [11],specifically activated; also recorded: respond only to a single ligand
same,activation of GnRH-superfamily receptors in vitro,[2],activate GnRH-superfamily receptors in vitro
same,EC50,[3]; [10],200 nM
same,activation of GnRHR2/AKHR2,[3]; [11],specifically activated; also recorded: respond only to a single ligand
CC(C)C[C@H](NC(=O)[C@H](CO)NC(=O)[C@H](Cc1ccccc1)NC(=O)[C@H](CO)NC(=O)[C@H](Cc1ccccc1)NC(=O)[C@@H]1CCC(=O)N1)C(=O)N1CCC[C@H]1C(=O)NCC(=O)N[C@@H](CCCCN)C(=O)N[C@@H](Cc1c[nH]c2ccccc12)C(=O)NCC(=O)N[C@@H](CC(N)=O)C(N)=O [GnRHL3] ([pGlu]FSFSLPGKWGN-NH2),EC50 levels for CrzR activation compared with the other CRZ ligands,[4]; GnRHL3-CrzR activation assay versus other CRZ ligands,significantly higher
same,activation of CrzR,"[4]; ligand-receptor interaction analyses, isoform not stated",activated
same,EC50,[5]; [10],5800 nM
same,activation of CrzRb,[5]; [12],also respond; also recorded: at higher concentration
same,activation of GnRH-superfamily receptors in vitro,[2],activate GnRH-superfamily receptors in vitro
same,EC50,[6]; [10],500 nM
same,activation of CrzRa,[6]; [12],also respond; also recorded: at higher concentration
O[C@H]1[C@H]2[C@H](O)CCCN2C[C@H]1O [swainsonine],development of honeybee larvae,[7],developmental delay in pupal metamorphosis
glucagon,glucose production,[8],increased glucose production
"leptin: leptin, injected in female mice (protein, UniProt P41160 22-167, looked up) Leptin: VPIQKVQDDTKTLIKTIVTRINDISHTQSVSAKQRVTGLDFIPGLHPILSLSKMDQTLAVYQQVLTSLPSQNVLQIANDLENLRDLLHLLAFSKSCSLPQTSGLQKPESLDGVLEASLYSTEVVALSRLQGSLQDILQQLDVSPEC",puberty onset,[9],advances puberty onset
